Laboratory results reported in patent US20140080810A1 (Exelixis, Inc., priority 2010, published 2014).
Read-outs that look alike come from different tables or passages of the source.

Tests used:
[1] = biological target: mTOR/GbL/Raptor (mTORC1) (Homo sapiens, UniProt P42345); assay: mTOR/GbL/Raptor (mTORC1) ELISA Assay; assay type: biochemical; details: 4EBP1 used as substrate for mTOR/GbL/raptor kinase; read-out: PI3K biochemical IC50 values mTOR
Protocol: The measurement of mTORC1 enzyme activity was performed in an ELISA assay format following the phosphorylation of 4E-BP1 protein. All experiments were performed in the 384-well format. Generally, 0.5 μL DMSO containing varying concentrations of the test Compound was mixed with 15 μL enzyme solution. Kinase reactions were initiated with the addition of 15 μL of substrates-containing solution. The assay conditions were as follows; 0.2 nM mTORC1, 10 μM ATP and 50 nM NHis-tagged 4E-BPI in 20 mM Hepes, pH 7.2, 1 mM DTT, 50 mM NaCl, 10 mM MnCl2, 0.02 mg/mL BSA, 0.01% CHAPS, 50 mM β-glycerophosphate. Following an incubation of 120 minutes at ambient temperature, 20 μL of the reaction volume was transferred to a Ni-Chelate-coated 384-well plate. The binding step of the 4E-BP1 protein proceeded for 60 minutes, followed by washing 4 times each with 50 μL of Tris-buffered saline solution (TBS). Anti-phospho-4E-BP1 rabbit-IgG (20 μL, 1:5000) in 5% BSA-TBST (0.2% Tween-20 in TBS) was added and further incubated for 60 minutes. Incubation with a secondary HRP-tagged anti-IgG was similarly performed after washing off the primary antibody (4 washes of 50 μL). Following the final wash step with TBST, 20 μL of SuperSignal ELISA Femto (Pierce Biotechnology) was added and the luminescence measured using an EnVision plate reader.

[2] = biological target: PI3Kβ (Homo sapiens, UniProt P42338); assay: PI3K Biochemical Assay; details: PIP2 used as substrate
PI3Kβ, sequence (P42338 whole entry): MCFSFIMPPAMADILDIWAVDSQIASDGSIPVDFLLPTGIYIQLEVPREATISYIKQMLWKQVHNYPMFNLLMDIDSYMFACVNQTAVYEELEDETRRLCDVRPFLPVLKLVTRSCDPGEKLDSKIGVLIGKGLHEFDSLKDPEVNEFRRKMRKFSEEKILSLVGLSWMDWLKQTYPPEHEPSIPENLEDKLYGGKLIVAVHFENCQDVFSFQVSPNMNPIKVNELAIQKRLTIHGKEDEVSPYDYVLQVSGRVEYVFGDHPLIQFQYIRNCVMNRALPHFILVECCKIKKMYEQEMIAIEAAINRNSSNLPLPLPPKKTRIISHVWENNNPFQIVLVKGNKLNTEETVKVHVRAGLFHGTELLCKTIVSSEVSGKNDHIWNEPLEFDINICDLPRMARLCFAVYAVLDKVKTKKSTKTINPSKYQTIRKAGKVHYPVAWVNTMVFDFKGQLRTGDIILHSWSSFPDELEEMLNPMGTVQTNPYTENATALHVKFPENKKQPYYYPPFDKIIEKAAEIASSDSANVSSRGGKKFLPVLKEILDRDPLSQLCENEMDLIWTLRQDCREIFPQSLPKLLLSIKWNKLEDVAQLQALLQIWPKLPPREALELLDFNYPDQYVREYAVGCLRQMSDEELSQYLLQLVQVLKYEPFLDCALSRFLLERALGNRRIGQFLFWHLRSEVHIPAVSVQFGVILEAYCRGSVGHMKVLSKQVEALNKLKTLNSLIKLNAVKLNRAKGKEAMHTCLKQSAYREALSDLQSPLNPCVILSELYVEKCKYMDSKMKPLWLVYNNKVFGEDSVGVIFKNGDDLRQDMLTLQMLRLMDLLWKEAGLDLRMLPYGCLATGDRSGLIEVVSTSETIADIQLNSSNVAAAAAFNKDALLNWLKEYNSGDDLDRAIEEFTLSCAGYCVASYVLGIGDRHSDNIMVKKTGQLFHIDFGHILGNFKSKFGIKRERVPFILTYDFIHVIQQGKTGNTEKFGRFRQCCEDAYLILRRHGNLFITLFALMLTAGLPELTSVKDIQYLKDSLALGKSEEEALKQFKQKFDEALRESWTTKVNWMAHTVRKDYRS
PI3Kβ, sequence (P27986 whole entry partner): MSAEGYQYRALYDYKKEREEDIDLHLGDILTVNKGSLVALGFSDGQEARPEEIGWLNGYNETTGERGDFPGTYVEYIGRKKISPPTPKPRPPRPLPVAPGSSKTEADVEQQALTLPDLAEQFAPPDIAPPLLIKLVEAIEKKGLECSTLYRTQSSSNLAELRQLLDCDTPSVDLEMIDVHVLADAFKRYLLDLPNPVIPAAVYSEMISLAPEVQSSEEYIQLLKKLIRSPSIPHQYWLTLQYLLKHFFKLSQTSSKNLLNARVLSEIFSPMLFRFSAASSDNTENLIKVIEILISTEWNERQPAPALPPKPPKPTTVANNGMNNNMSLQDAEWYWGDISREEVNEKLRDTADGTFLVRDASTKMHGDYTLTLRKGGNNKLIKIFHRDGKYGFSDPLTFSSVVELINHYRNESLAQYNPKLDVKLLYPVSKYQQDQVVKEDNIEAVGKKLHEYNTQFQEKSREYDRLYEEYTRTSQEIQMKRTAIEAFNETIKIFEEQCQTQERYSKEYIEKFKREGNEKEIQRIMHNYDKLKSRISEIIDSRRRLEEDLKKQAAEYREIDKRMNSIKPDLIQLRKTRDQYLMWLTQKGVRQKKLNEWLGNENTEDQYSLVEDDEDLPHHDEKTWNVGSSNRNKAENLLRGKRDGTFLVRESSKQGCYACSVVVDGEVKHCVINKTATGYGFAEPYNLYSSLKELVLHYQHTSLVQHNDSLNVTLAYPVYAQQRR
Protocol: PI3Kα activity is measured as the percent of ATP consumed following the kinase reaction using luciferase-luciferin-coupled chemiluminescence. Reactions were conducted in 384-well white, medium binding microtiter plates (Greiner). Kinase reactions were initiated by combining test compounds, ATP, substrate (PIP2), and kinase in a 20 μL volume in a buffer solution. The standard PI3Kalpha assay buffer is composed 50 mM Tris, pH 7.5, 1 mM EGTA, 10 mM MgCl2, 1 mM DTT and 0.03% CHAPS. The standard assay concentrations for enzyme, ATP, and substrate are 1.5 nM, 1 μM, and 10 μM, respectively. The reaction mixture was incubated at ambient temperature for approximately 2 h. Following the kinase reaction, a 10 μL aliquot of luciferase-luciferin mix (Promega Kinase-Glo) was added and the chemiluminescence signal measured using a Victor2 plate reader (Perkin Elmer). […] Substituting PI3Kα with PI3Kβ, PI3Kγ, or PI3Kδ, the inhibitory activity of the compounds for the other isoforms of I3K were measured.

[3] = system: pAKT (T308) in PC-3 cells (PTEN-null); assay: pAKT (T308) ELISA Assay; assay type: cell-based; details: Homo sapiens
Protocol: MCF-7 cells (ATCC) cells were seeded at 24000 cells per well in 96-well plates (Corning, 3904) in DMEM (Cellgro) containing 10% FBS (Cellgro), 1% NEAA (Cellgro) and 1% penicillin-streptomycin (Cellgro). Cells were incubated at 37° C., 5% CO2 for 48 h, and the growth medium was replaced with serum-free DMEM or in medium containing 0.4% BSA. Serial dilutions of the test Compound in 0.3% DMSO (vehicle) were added to the cells and incubated for 3 h. At the end of the incubation period, cells were stimulated for 10 minutes by the addition of L-IGF (Sigma, I-1271) at a final concentration of 100 ng/ml. Afterwards, media was discarded from cell plates and 110 μl/well of cold lysis buffer (see table below) were added. Cell plates were incubated on ice and then put on shaker in 4° C. cold room for 1 h. Two capture plates (Thermo Scientific, Reacti-bind plate, 15042) were prepared for each cell plate by pre-coating with capture Akt antibody from the two sandwich ELISA antibody pairs used (Cell Signaling Technology 7142 and 7144). The Akt capture antibodies were diluted 1:100 in PBS and 100 μl of diluted capture antibody was added per well. Capture plates were incubated at 4 C overnight. […] After 1 h of cell lysis, 85 μl of cell lysate/well was transferred to the capture plate for detection of pAkt(T308). 15 μl of cell lysate was transferred from same well to the second capture plate for detection of total Akt1. After incubation overnight at 4° C., plates were washed 3 times with 200 μL TBST. Primary antibodies, diluted 1:100 in blocking buffer, were added to the corresponding capture plates for pAkt(T308) (Cell Signaling Technology, 7144) and total Akt1 (Cell Signaling Technology, 7142) detection and incubated at room temperature for 1 h. Plates were washed 3 times with 200 μL of TBST. Goat anti-mouse secondary antibody (Cell Signaling Technology, 7076) conjugated to HRP was diluted 1:1000 in blocking buffer and 100 μl were added to each well and incubated for 30 minutes at room temperature. Plates were then washed 3 times with 200 μL of TBST. 100 μL of SuperSignal ELISA Femto stable peroxidase solution (Thermo Scientific, 37075) was added to each well. After 1 minute incubation, chemiluminescence was read on a Wallac Victor2 1420 multilabel counter. IC50 values were determined based on the ratio of pAkt(T308) to total Akt1 signal for Compound treated wells, normalized to the DMSO-treated control wells.
In another embodiment, the pAKT ELISA Assay was performed by seeding cells onto 96-well plates (Corning, 3904) in their respective growth media at the densities listed in Table 5. Cells were incubated at 37° C., 5% CO2 for 48 h (except MDA-MB-453 cells which were cultured in the absence of CO2). Compounds were serially diluted in DMSO and subsequently diluted in serum-free DMEM. Test compounds were added to cells in serum-free DMEM at a final concentration of 0.3% DMSO and incubated for 3 h. Cells were lysed with 130 μL of ice-cold RIPA lysis buffer (50 mM Tris-HCl, pH 7.5; 0.5% sodium deoxycholic acid; 1% Triton X-100; 0.1% SDS; 150 mM NaCl) with protease and phosphatase inhibitors (1 mM EDTA, 1 mM NaF, 20 mM β-glycerophosphate, 1 mM Na-orthovanadate, Complete-Mini EDTA-free, Roche, 11836170001, and Phosphatase Inhibitor Cocktail I, Sigma, P2850), directly in 96-well plates. Cells were lysed on ice for 60-120 min at 4° C. The supernatants were added directly to capture ELISA plates previously pre-coated with rabbit anti-AKT capture antibody. ELISA assays for pAKT(T308) and total AKT were performed with the pAKT(T308) ELISA kit (Cell Signaling Technology, 7144) and AKT1 ELISA kit (Cell Signaling Technology, 7142). For the pAKT(T308) ELISA, 85 μL of cell lysate was added to each well. For the total AKT1 ELISA, 15 μL of cell lysate and 85 μL of Starting Block buffer (Pierce, 37543) were added to each well.

[4] = IGF1 stimulation, read-out: pAKT (T308) IC50 PC# PTEN-null IGF1
[5] = LPA stimulation, read-out: pAKT (T308) IC50 PC# PTEN-null LPA

Row | IC50 [1] | IC50 [2] | IC50 [3, 4] | IC50 [3, 5] | SMILES
1 | 0.381 µM | 1.31 µM | 1.69 µM | 1.86 µM | COc1ccc2c(N3CCOc4ccc(-c5cnc6nc(C)[nH]c6c5)cc4C3)nc(CN(C)C)nc2c1 [Compound 696]
2 | 0.252 µM | 1.74 µM | 2.12 µM | 3.81 µM | CCNc1nc2ccc(-c3ccc4c(c3)CN(c3ncnc(NCC)c3C)CCO4)cc2[nH]1 [Compound 699]
3 | 0.016 µM | > 3 µM | 0.231 µM | 0.571 µM | Cc1nc2cc(-c3ccc4c(c3)CN(c3nc(CN(C)C)nc(C)c3C(C)C)CCO4)cnc2[nH]1 [Compound 694]
4 | 0.12 µM | 1.56 µM | 2.87 µM | 4.54 µM | CCNc1nc2ccc(-c3ccc4c(c3)CN(c3ccnc5cc(F)ccc35)CCO4)cc2[nH]1 [Compound 698]
5 | 0.006 µM | > 3 µM |  |  | Cc1nc2ncc(-c3ccc4c(c3)CN(c3nc(CN(C)C)nc5c3CC(C)(C)CC5)CCO4)cc2[nH]1 [Compound 693]
